Test results reported in ChEMBL document CHEMBL1130817, “Sulfonamide derivatives of benzylamine block cholesterol biosynthesis in HepG2 cells: a new type of potent squalene epoxidase inhibitors” (Bioorg Med Chem Lett, 1998).

Target: Squalene monooxygenase (Homo sapiens, UniProt Q14534)
Test: In vitro inhibition of cholesterol biosynthesis in human HepG2 cells.
Assay type: functional, cell-based

Chain of Squalene monooxygenase (Homo sapiens, UniProt Q14534) (Q14534 whole entry): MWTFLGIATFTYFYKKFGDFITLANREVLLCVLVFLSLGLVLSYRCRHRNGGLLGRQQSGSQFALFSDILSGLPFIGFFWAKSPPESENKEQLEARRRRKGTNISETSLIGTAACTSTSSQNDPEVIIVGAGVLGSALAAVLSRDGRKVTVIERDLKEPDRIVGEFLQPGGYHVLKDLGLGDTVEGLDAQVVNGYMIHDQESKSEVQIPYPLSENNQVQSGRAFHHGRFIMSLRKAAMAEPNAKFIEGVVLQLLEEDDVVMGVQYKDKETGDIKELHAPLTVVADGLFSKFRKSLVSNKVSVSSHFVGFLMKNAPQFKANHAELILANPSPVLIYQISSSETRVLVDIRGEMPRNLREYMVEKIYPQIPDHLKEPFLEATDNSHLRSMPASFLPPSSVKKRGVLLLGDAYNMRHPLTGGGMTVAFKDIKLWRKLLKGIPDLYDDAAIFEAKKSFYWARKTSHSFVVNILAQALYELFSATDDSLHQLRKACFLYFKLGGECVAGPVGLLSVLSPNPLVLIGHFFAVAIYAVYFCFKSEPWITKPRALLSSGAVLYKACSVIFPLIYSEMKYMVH

First: CCN(C/C=C/C#CC(C)(C)C)Cc1cccc(OCCN(C)S(=O)(=O)c2cccnc2)c1
Second: CCN(C/C=C/C#CC(C)(C)C)Cc1cccc(OCCN(C)S(=O)(=O)c2ccsc2)c1
The IC50 of the first is 1.7-fold lower: 150 nM for the first, 250 nM for the second.

`CCN(C/C=C/C#CC(C)(C)C)Cc1cccc(OCCN(C)S(=O)(=O)c2ccc(Br)cc2)c1` and `CCN(C/C=C/C#CC(C)(C)C)Cc1cccc(OCCN(C)S(=O)(=O)c2ccc(F)cc2)c1` are within 1.5-fold of each other in IC50: 330 nM for the first, 255 nM for the second.

Compared with `CCCN(CCOc1cccc(CN(CC)C/C=C/C#CC(C)(C)C)c1)S(=O)(=O)c1cccs1`, `CCN(C/C=C/C#CC(C)(C)C)Cc1cccc(OCCN(CC)S(=O)(=O)c2cccs2)c1` is 1.9-fold lower in IC50: 170 nM for the first, 90 nM for the second.

Compared with `CCN(C/C=C/C#CC(C)(C)C)Cc1cccc(OCCN(C)S(=O)(=O)c2ccc(C#N)cc2)c1`, `CCN(C/C=C/C#CC(C)(C)C)Cc1cccc(OCCN(C)S(=O)(=O)c2ccc(Br)s2)c1` is 1.9-fold higher in IC50: 200 nM for the first, 390 nM for the second. The first is the more potent here.

Compared with `CCN(C/C=C/C#CC(C)(C)C)Cc1cccc(OCCNS(=O)(=O)c2cccs2)c1`, `CCN(C/C=C/C#CC(C)(C)C)Cc1cccc(OCCCS(=O)(=O)c2cccs2)c1` is 1.6-fold lower in IC50: 450 nM for the first, 290 nM for the second.

Going from `CCN(C/C=C/C#CC(C)(C)C)Cc1cccc(OCCN(C)S(=O)(=O)Cc2cccs2)c1` to `CCN(C/C=C/C#CC(C)(C)C)Cc1cccc(OCCN(C)S(=O)(=O)c2cccs2)c1`, the IC50 falls from 200 nM to 60 nM (3.3-fold).

Compared with `CCN(C/C=C/C#CC(C)(C)C)Cc1cccc(OCCN(C2CC2)S(=O)(=O)c2cccs2)c1`, `CCN(C/C=C/C#CC(C)(C)C)Cc1cccc(OCCCN(C)S(=O)(=O)c2cccs2)c1` is 28-fold higher in IC50: 230 nM for the first, 6400 nM for the second.

Going from `CCN(C/C=C/C#CC(C)(C)C)Cc1cccc(OCCN(C)S(=O)(=O)c2ccc(-c3cccs3)s2)c1` to `CCN(C/C=C/C#CC(C)(C)C)Cc1cccc(OCCN(C)S(=O)(=O)c2ccc(-c3ccsc3)s2)c1`, the IC50 falls from 10000 nM to 210 nM (48-fold).

Going from `CCN(C/C=C/C#CC(C)(C)C)Cc1cccc(OCCN(C)S(=O)(=O)c2cc3ccccc3s2)c1` to `CCN(C/C=C/C#CC(C)(C)C)Cc1cccc(OCCN(C)S(=O)(=O)c2cc(Br)cs2)c1`, the IC50 falls from 1800 nM to 300 nM (6-fold).

First: CCN(C/C=C/C#CC(C)(C)C)Cc1cccc(OCCN(C)S(=O)(=O)c2cc(-c3ccsc3)cs2)c1
Second: CCN(C/C=C/C#CC(C)(C)C)Cc1cccc(OCCN(C)S(=O)(=O)c2nccs2)c1
The IC50 of the first is 1.9-fold lower: 90 nM for the first, 170 nM for the second.

Target: Squalene monooxygenase (Rattus norvegicus) (UniProt P52020)
Test: Compound was evaluated in vivo for the inhibition of rat mammalian squalene epoxidase […]
Assay type: organism-based

Chain of Squalene monooxygenase (Rattus norvegicus) (P52020 whole entry, looked up): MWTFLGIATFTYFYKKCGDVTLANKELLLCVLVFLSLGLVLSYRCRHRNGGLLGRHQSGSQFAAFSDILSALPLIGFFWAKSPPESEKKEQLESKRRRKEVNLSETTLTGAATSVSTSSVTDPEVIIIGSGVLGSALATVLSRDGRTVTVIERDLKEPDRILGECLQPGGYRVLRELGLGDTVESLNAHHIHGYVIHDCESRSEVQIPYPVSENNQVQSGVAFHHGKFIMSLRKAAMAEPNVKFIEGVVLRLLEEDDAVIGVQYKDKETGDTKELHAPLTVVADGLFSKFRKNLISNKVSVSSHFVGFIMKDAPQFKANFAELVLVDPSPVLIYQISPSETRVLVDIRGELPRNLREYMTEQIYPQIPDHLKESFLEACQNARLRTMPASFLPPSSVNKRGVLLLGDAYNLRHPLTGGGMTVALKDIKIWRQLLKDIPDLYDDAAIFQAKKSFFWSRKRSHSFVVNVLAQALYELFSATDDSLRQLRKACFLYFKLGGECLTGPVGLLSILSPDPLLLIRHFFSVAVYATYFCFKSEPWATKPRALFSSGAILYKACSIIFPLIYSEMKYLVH

For `CCN(C/C=C/C#CC(C)(C)C)Cc1cccc(OCc2cc(-c3ccsc3)cs2)c1`, the ED50 was 2.5 mg/kg.

Target: Squalene monooxygenase (Rattus norvegicus) (UniProt P52020)
Test: Compound was evaluated in vivo for the inhibition of rat squalene epoxidase […]; Inactive
Assay type: organism-based

`CCN(C/C=C/C#CC(C)(C)C)Cc1cccc(OCCN(C)S(=O)(=O)c2cccs2)c1` gave an ED50 of 40 mg/kg.

Target: Squalene monooxygenase (Rattus norvegicus, UniProt P52020)
Test: In vitro inhibition of rat liver squalene epoxidase […]
Assay type: cell-based

Chain of Squalene monooxygenase (Rattus norvegicus, UniProt P52020) (P52020 whole entry): as the sequence (P52020 whole entry, looked up) above

In the case of `CCN(C/C=C/C#CC(C)(C)C)Cc1cccc(OCCN(C)S(=O)(=O)c2cccs2)c1`, the IC50 is reported as 6000 nM.
